These results are taken from patent US8378104B2 (OSI Pharmaceuticals, LLC, priority 2010, dated 2013).

Structures are written as SMILES. pIC50: −log10 of the molar value. Where a name gives a salt, the structure may show the parent alone.

One test has as its system pJNK in HCT-116 cells. Kind of test: Phospho-JNK (Thr183/Tyr185) Meso Scale ELISA assay, TNFα-stimulated HCT-116 cells. The class given is cell-based. The settings on record: Homo sapiens, read-out: mean HCT-116 pJNK ELISA IC50 (Col. B). On the procedure:
Detailed below are ELISA assays for pJNK and p38, and a TAK1 biochemical assay. […] In Table 1, Col.
Phospho-JNK (Thr183/Tyr185) Meso Scale ELISA Assay
• 1. Plate HCT-116 cells at 25,000 per well in 100 uL in 96 well clear dishes in normal growth medium. Day 2: • 1. Aspirate medium and replace with 90 μl reduced serum growth medium (1% FCS), incubate for 2 hours at 37° C. • 2. Make drugs at 10× in reduced serum medium and add 10 uL per well. • 3. Incubate at 37° C. for 4 hrs. • 4. Bring capture plates to room temperature. • 5. Block with 150 μl Blocking Solution (provided with kit) (600 mg Blocker A into 20 mL 1× Wash Buffer per plate) at room temperature with shaking. • 6. Wash plates 4× with 200 μl 1× wash buffer (10× provided with kit) before transferring lysates. • 7. Dilute TNFα to […] in reduced serum medium (this makes a 10× working stock). • 8. Add 10 μl TNFα to all wells except negative control wells, final concentration is 10 ng/mL. • 9. Incubate at 37° C. for 10 minutes. • 10. Remove medium by flicking into sink • 11. Wash cells with 100 uL ice cold PBS. • 12. Remove PBS by flicking into sink and patting on paper towels. • 13. Lyse cells in 50 μl ice cold 1× Complete Lysis Buffer plus Phosphatase and Protease inhibitors (all provided with kit) (10 mL Tris Lysis Buffer+200 μl Protease inhibitor solution+100 μl Phosphatase inhibitor I+100 μl Phosphatase inhibitor II). • 14. Incubate with shaking at 4° C. for 30 minutes. • 15. Transfer 45 μl to capture plate, cover with adhesive cover, and incubate at 4° C. over night with shaking. • Day 3: • 1. Wash plates 4× with 200 μl 1× wash buffer (10× provided with kit). • 2. […] Incubate at room temperature with shaking for 1 hour. • 4. Wash 4× with 200 μl 1× Wash Buffer. • 5. […] Read on Sector Imager. Phospho-p38 Meso Scale ELISA Assay Day 1: • 1. Plate HCT-116 cells at 25,000 per well in 100 uL in 96 well clear dishes in normal growth medium. zday 2: • 1. Aspirate medium and replace with 90 μl reduced serum growth medium (1% FCS), incubate for 2 hours at 37° C. • 2. Make drugs at 10× in reduced serum medium and add 10 uL per well. • 3. Incubate at 37° C. for 4 hrs. • 4. Bring capture plates to room temperature. • 5. Block with 150 μl Blocking Solution (provided with kit) (600 mg Blocker A into 20 mL 1× Wash Buffer per plate) at room temperature with shaking. • 6. Wash plates 4× with 200 μl 1× wash buffer (10× provided with kit) before transferring lysates. • 7. Dilute TNFα to […] in reduced serum medium (this makes a 10× working stock). • 8. Add 10 μl TNFα to all wells except negative control wells, final concentration is 10 ng/mL. • 9. Incubate at 37° C. for 10 minutes. • 10. Remove medium by flicking into sink • 11. Wash cells with 100 uL ice cold PBS. • 12. Remove PBS by flicking into sink and patting on paper towels. • 13. Lyse cells in 50 μl ice cold 1× Complete Lysis Buffer plus phosphatase and protease inhibitors (all provided with kit) (10 mL Tris Lysis Buffer+200 μl Protease inhibitor solution+100 μl Phosphatase inhibitor I+100 μl Phosphatase inhibitor II). • 14. Incubate with shaking at 4° C. for 30 minutes. • 15. Dilute lysates before transferring to capture plate with 100 μl Complete p38 Lysate • Dilution Buffer (provided with kit) (10 mL of Diluent 20±200 μl Protease inhibitor solution+100 μl Phosphatase inhibitor I+100 μl Phosphatase inhibitor II). • 16. Transfer 50 μl of diluted lysates to capture plate, cover with adhesive cover, and incubate at 4° C. over night with shaking. Day 3: • 1. Wash plates 4× with 200 μl 1× wash buffer (10× provided with kit). • 2. […] Incubate at room temperature with shaking for 1 hour. • 4. Wash 4× with 200 μl 1× Wash Buffer. • 5. […] Read on Sector Imager. TAK1 Biochemical Assay

A further test has as its target T1, TAK1-TAB1 fusion protein (Homo sapiens, UniProt O43318).
T1 construct: purchased Carna
T1 sequence (O43318 with tags, fused parts or gaps limits assumed): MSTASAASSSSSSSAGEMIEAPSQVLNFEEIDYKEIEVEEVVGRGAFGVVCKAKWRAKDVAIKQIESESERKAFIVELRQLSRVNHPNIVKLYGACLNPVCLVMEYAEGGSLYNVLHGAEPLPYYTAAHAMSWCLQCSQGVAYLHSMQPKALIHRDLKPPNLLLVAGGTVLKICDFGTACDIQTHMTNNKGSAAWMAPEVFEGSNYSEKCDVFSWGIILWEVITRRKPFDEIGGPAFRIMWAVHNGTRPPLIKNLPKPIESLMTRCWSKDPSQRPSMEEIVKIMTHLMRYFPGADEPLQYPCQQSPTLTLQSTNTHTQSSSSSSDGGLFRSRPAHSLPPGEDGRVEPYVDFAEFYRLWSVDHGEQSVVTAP
Briefly: TAK1 biochemical assay (AlphaScreen, GST-MAP2K7 substrate). The settings on record: TAK1-TAB1 fusion protein, GST-MAP2K7 substrate; read-out: mean TAK1 IC50 (Col. A). (Alpha assays give light when donor and acceptor beads are brought close together.)

For orientation: pIC50 means −log10 of the IC50, conventionally taken in molar units. On to `CC(=O)N1CCC(n2cc(-c3cnc(N)c4oc(-c5csc6cnncc56)cc34)cn2)CC1` [Example 261, 1-(4-{4-[7-amino-2-(thieno[2,3-d]pyridazin-3-yl)furo[2,3-c]pyridin-4-yl]-1H-pyrazol-1-yl}piperidin-1-yl)ethanone diformate], for which the negative-log IC50 (pIC50) was 6.00 to 7.00 with pJNK in HCT-116 cells and more than 7.00 on TAK1-TAB1 fusion protein.
As for `CC(=O)N1CCC(n2cc(-c3cnc(N)c4oc(-c5csc6c(F)nccc56)cc34)cn2)CC1` [Example 256, 1-(4-{4-[7-amino-2-(7-fluorothieno[2,3-c]pyridin-3-yl)furo[2,3-c]pyridin-4-yl]-1H-pyrazol-1-yl}piperidin-1-yl)ethanone trifluoroacetic acid salt], the pIC50 in the test on pJNK in HCT-116 cells and at TAK1-TAB1 fusion protein was 6.00 to 7.00 each time.
On to `Nc1ncc(-c2cnn([C@@H]3C[C@H]4CC[C@@H](C3)N4)c2)c2cc(-c3csc4cnccc34)oc12` [Example 320, 4-{1-[(3-exo)-8-azabicyclo[3.2.1]oct-3-yl]-1H-pyrazol-4-yl}-2-(thieno[2,3-c]pyridin-3-yl)furo[2,3-c]pyridin-7-amine], for which the pIC50 was 6.00 to 7.00 in the test on pJNK in HCT-116 cells and more than 7.00 at TAK1-TAB1 fusion protein.
For `[2H]C([2H])([2H])Nc1ncc(-c2cnn([C@H]3CC[C@H](O)CC3)c2)c2cc(-c3cccc4nnsc34)oc12` [Example 361, trans-4-(4-{2-(1,2,3-benzothiadiazol-7-yl)-7-[(^2H3)methylamino]furo[2,3-c]pyridin-4-yl}-1H-pyrazol-1-yl)cyclohexanol], the pIC50 with pJNK in HCT-116 cells and at TAK1-TAB1 fusion protein was more than 7.00 each time.
For the molecule `CC(=O)N1CCC(n2cc(-c3cnc(N)c4oc(-c5c(C#N)sc6cnccc56)cc34)cn2)CC1` [Example 264, 3-{4-[1-(1-acetylpiperidin-4-yl)-1H-pyrazol-4-yl]-7-aminofuro[2,3-c]pyridin-2-yl}thieno[2,3-c]pyridine-2-carbonitrile Trifluoroacetate], the pIC50 was more than 7.00 in the test on pJNK in HCT-116 cells and 6.00 to 7.00 on TAK1-TAB1 fusion protein.
For `CC(=O)N1[C@@H]2CC[C@H]1C[C@H](n1cc(-c3cnc(N)c4oc(-c5csc6cnccc56)cc34)cn1)C2` [Example 325, 1-[(3-exo)-3-{4-[7-amino-2-(thieno[2,3-c]pyridin-3-yl)furo[2,3-c]pyridin-4-yl]-1H-pyrazol-1-yl}-8-azabicyclo[3.2.1]oct-8-yl]ethanone], in that order: more than 7.00 and more than 7.00.
For `CC(C)(C)OC(=O)N1[C@@H]2CC[C@H]1C[C@H](n1cc(-c3cnc(N)c4oc(-c5cccc6cnsc56)cc34)cn1)C2` [Example 301, tert-butyl (3-exo)-3-{4-[7-amino-2-(1,2-benzisothiazol-7-yl)furo[2,3-c]pyridin-4-yl]-1H-pyrazol-1-yl}-8-azabicyclo[3.2.1]octane-8-carboxylate], in that order: 6.00 to 7.00 and 6.00 to 7.00.
For `Nc1ncc(-c2cnn([C@H]3CC[C@H](O)CC3)c2)c2cc(-c3csc4cnc(Cl)cc34)oc12` [Example 247, trans-4-{4-[7-amino-2-(5-chlorothieno[2,3-c]pyridin-3-yl)furo[2,3-c]pyridin-4-yl]-1H-pyrazol-1-yl}cyclohexanol bis(trifluoroacetate)], in that order: 6.00 to 7.00 and 6.00 to 7.00.
Turning to `Nc1ncc(-c2cnn(C3CCN(C(=O)NCC4CCCCC4)CC3)c2)c2cc(-c3cccc4cnsc34)oc12` [Example 341, 4-[4-(7-amino-2-benzo[d]isothiazol-7-yl-furo[2,3-c]pyridin-4-yl)-pyrazol-1-yl]-piperidine-1-carboxylic acid cyclohexylmethyl-amide], the pIC50 is more than 7.00 in the test with pJNK in HCT-116 cells and 6.00 to 7.00 at TAK1-TAB1 fusion protein.
For `COCc1nc2cccc(-c3cc4c(-c5cnn([C@H]6CC[C@H](O)CC6)c5)cnc(N)c4o3)c2s1` [Example 349, trans-4-(4-{7-amino-2-[2-(methoxymethyl)-1,3-benzothiazol-7-yl]furo[2,3-c]pyridin-4-yl}-1H-pyrazol-1-yl)cyclohexanol Trifluoroacetate (salt)], in that order: more than 7.00 and more than 7.00.
The corresponding values for `Nc1ncc(-c2cnn([C@H]3CC[C@H](O)CC3)c2)c2c(Cl)c(-c3cccc4ncsc34)oc12` [Example 288, trans-4-{4-[7-amino-2-(1,3-benzothiazol-7-yl)-3-chlorofuro[2,3-c]pyridin-4-yl]-1H-pyrazol-1-yl}cyclohexanol] are more than 7.00 and more than 7.00.
For `Nc1ncc(-c2cnn([C@H]3CC[C@H](O)CC3)c2)c2cc(-c3c(F)ccc4nnsc34)oc12` [Example 272, trans-4-{4-[7-amino-2-(6-fluoro-1,2,3-benzothiadiazol-7-yl)furo[2,3-c]pyridin-4-yl]-1H-pyrazol-1-yl}cyclohexanol diformate salt], in that order: more than 7.00 and more than 7.00.
For `CCNc1nc2cccc(-c3cc4c(-c5cnn([C@H]6CC[C@H](O)CC6)c5)cnc(N)c4o3)c2s1` [Example 355, trans-4-(4-{7-amino-2-[2-(ethylamino)-1,3-benzothiazol-7-yl]furo[2,3-c]pyridin-4-yl}-1H-pyrazol-1-yl)cyclohexanol Trifluoroacetate (Salt)], the pIC50 in the test on pJNK in HCT-116 cells and at TAK1-TAB1 fusion protein was more than 7.00 in each case.
With `Nc1ncc(-c2cnn([C@@H]3CCC[C@@H](O)C3)c2)c2cc(-c3cccc4cnsc34)oc12` (relative stereo) [Example 313, trans-3-[4-(7-amino-2-benzo[d]isothiazol-7-yl-furo[2,3-c]pyridin-4-yl)-pyrazol-1-yl]-cyclohexanol], the results for the pIC50 in the test with pJNK in HCT-116 cells and at TAK1-TAB1 fusion protein were 6.00 to 7.00 and more than 7.00, respectively.
As for `Nc1ncc(-c2cnn([C@H]3CC[C@H](O)CC3)c2)c2cc(-c3cccc4cnncc34)oc12` [Example 366, trans-4-{4-[7-amino-2-(phthalazin-5-yl)furo[2,3-c]pyridin-4-yl]-1H-pyrazol-1-yl}cyclohexanol], the pIC50 in the test with pJNK in HCT-116 cells and at TAK1-TAB1 fusion protein was more than 7.00 throughout.
On to `Nc1ncc(-c2cnn([C@H]3CC[C@H](O)CC3)c2)c2cc(-c3csc4cnc(O)cc34)oc12` [Example 360, 3-{7-Amino-4-[1-(trans-4-hydroxycyclohexyl)-1H-pyrazol-4-yl]furo[2,3-c]pyridin-2-yl}thieno[2,3-c]pyridin-5-ol], for which the pIC50 with pJNK in HCT-116 cells was 5.00 to 6.00; on TAK1-TAB1 fusion protein, 6.00 to 7.00.
For the molecule `CC(=O)N1CCC(n2cc(-c3cnc(N)c4oc(-c5cccc6cnncc56)cc34)cn2)CC1` [Example 367, 1-(4-{4-[7-amino-2-(phthalazin-5-yl)furo[2,3-c]pyridin-4-yl]-1H-pyrazol-1-yl}piperidin-1-yl)ethanone], the negative logarithm of the IC50 (pIC50) with pJNK in HCT-116 cells and on TAK1-TAB1 fusion protein was 6.00 to 7.00 each time.
